Test results from patent US12398154B2, “Azaquinazoline pan-KRas inhibitors” (Mirati Therapeutics, Inc., priority 2020, dated 2025).

How the values were obtained:
KRas G12R = KRas G12R (Homo sapiens, UniProt P01116, G12R); assay: biochemical;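 note: TR-FRET displacement assay of compound binding to KRas, read after one hour at room temperature, potency from a four-parameter fit of percent-of-control values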
Experimental: (§1) The ability of a compound to bind to KRas was measured using a TR-FRET displacement assay. […] After a 60-minute incubation at room temperature, the reaction was measured using a BMG LABTECH CLARIO star Plus via TR-FRET. […] The POC values were fit to a 4-parameter IC50 equation and the IC50 value reported.

pERK in MKN1 cells = assay: Inhibition of KRas phosphorylation of ERK (Cisbio HTRF pERK assay); details: Homo sapiens, MKN-1, 3 h, read-out: Inhibition (HTRF IC50) of KRas-mediated Phosphorylation of ERK, MKN1
pERK in ASPC1 cells = assay: as above; details: Homo sapiens, ASPC1, read-out: Inhibition (HTRF IC50) of KRas-mediated Phosphorylation of ERK, AsPC-1
KRas G12D = KRas G12D (Homo sapiens, UniProt P01116, G12D); assay: biochemical;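 note: TR-FRET displacement binding assay on KRas, read after a one-hour incubation at room temperature, IC50 fitted from percent-of-control values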
Experimental: as §1

pERK in PSN1 cells = assay: Inhibition of KRas phosphorylation of ERK (Cisbio HTRF pERK assay); details: Homo sapiens, PSN1, 3 h, read-out: Inhibition (HTRF IC50) of KRas-mediated Phosphorylation of ERK, PSN1
KRas G12V = KRas G12V (Homo sapiens, UniProt P01116, G12V); assay: biochemical;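 note: KRas binding measured by TR-FRET displacement at room temperature, IC50 fitted from percent of control values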
Experimental: as §1

KRas G12C = KRas G12C (Homo sapiens, UniProt P01116, G12C); assay: biochemical;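 note: binding to KRas assessed by TR-FRET displacement after one hour incubation at room temperature, potency fitted from percent-of-control values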
Experimental: as §1

KRas WT = KRas WT (Homo sapiens, UniProt P01116); assay: biochemical;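 note: binding to KRas read as TR-FRET displacement after a one-hour room-temperature incubation, IC50 derived from percent-of-control values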
Sequence of KRas WT (P01116 1-169 isoform P01116-2): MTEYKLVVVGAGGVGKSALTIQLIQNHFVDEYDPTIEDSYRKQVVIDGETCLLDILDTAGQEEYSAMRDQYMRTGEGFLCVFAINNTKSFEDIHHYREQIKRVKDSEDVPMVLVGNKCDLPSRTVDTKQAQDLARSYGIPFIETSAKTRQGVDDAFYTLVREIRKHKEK
Experimental: as §1

Sequence of KRas G12D (P01116 1-169 isoform P01116-2 G12D): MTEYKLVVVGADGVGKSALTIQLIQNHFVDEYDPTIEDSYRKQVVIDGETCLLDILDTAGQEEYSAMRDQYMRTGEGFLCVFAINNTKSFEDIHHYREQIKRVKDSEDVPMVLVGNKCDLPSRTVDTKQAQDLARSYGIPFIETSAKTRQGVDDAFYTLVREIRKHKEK
Sequence of KRas G12V (P01116 1-169 isoform P01116-2 G12V): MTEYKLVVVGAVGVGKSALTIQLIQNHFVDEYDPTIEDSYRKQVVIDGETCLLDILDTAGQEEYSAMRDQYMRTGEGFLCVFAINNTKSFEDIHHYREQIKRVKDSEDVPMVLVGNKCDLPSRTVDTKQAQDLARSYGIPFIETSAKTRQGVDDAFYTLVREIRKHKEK
Sequence of KRas G12R (P01116 1-169 isoform P01116-2 G12R): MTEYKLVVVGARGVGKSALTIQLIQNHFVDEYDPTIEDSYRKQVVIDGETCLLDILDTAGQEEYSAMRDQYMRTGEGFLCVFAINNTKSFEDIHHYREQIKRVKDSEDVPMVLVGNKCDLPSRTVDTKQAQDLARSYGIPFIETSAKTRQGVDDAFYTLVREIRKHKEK
Sequence of KRas G12C (P01116 1-169 isoform P01116-2 G12C): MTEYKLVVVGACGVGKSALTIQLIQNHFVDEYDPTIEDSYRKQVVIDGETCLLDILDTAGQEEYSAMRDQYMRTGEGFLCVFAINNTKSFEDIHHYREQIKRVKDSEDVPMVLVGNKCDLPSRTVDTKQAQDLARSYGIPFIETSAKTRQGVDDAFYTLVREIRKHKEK

IC50 (KRas G12R) [nM]	IC50 (pERK in MKN1 cells) [nM]	IC50 (pERK in ASPC1 cells) [nM]	IC50 (KRas G12D) [nM]	IC50 (pERK in PSN1 cells) [nM]	IC50 (KRas G12V) [nM]	IC50 (KRas G12C) [nM]	IC50 (KRas WT) [nM]	Compound
14	254	3520	84	≥ 10000	15	–	–	CCc1c(F)ccc2cc(O)cc(-c3ncc4c(NC[C@H]5COC[C@H]5O)nc(OC[C@@]56CCCN5C[C@H](F)C6)nc4c3F)c12 (single isomer, unassigned) [Example 492]
9	622	≥ 10000	130	≥ 10000	11	–	–	CCc1c(F)ccc2cc(O)cc(-c3ncc4c(NC[C@@H]5COC[C@@H]5O)nc(OC[C@@]56CCCN5C[C@H](F)C6)nc4c3F)c12 (single isomer, unassigned) [Example 493]
977	–	–	63100	–	2390	1830	–	Fc1c(-c2cccc3cccc(F)c23)ncc2c(N3CC(n4ccnc4)C3)nc(OCC34CCCN3CCC4)nc12 [Example 75, 4-(3-(1H-imidazol-1-yl)azetidin-1-yl)-8-fluoro-7-(8-fluoronaphthalen-1-yl)-2-((hexahydro-1H-pyrrolizin-7a-yl)methoxy)pyrido[4,3-d]pyrimidine]
3060	–	–	1240	–	2430	2720	3390	O=C1NC2(CCCN(c3nc(OCC45CCCN4CCC5)nc4c(F)c(-c5cccc6cccc(F)c56)ncc34)C2)CO1 (stereo not drawn) [Example 227, 7-(8-fluoro-7-(8-fluoronaphthalen-1-yl)-2-((hexahydro-1H-pyrrolizin-7a-yl)methoxy)pyrido[4,3-d]pyrimidin-4-yl)-3-oxa-1,7-diazaspiro[4.5]decan-2-one]
2120	–	–	85300	–	3120	4720	36800	CC(Nc1nc(OCC23CCCN2CCC3)nc2c(F)c(-c3cccc4cccc(F)c34)ncc12)c1c[nH]c2ncccc12 (stereo not drawn) [Example 229, N-(1-(1H-pyrrolo[2,3-b]pyridin-3-yl)ethyl)-8-fluoro-7-(8-fluoronaphthalen-1-yl)-2-((tetrahydro-1H-pyrrolizin-7a(5H)-yl)methoxy)pyrido[4,3-d]pyrimidin-4-amine]
1660	–	–	960	–	1790	–	1530	Fc1c(-c2cccc3cccc(F)c23)ncc2c(N3CCCC4(CSC4)C3)nc(OCC34CCCN3CCC4)nc12 [Example 262, 6-(8-fluoro-7-(8-fluoronaphthalen-1-yl)-2-((hexahydro-1H-pyrrolizin-7a-yl)methoxy)pyrido[4,3-d]pyrimidin-4-yl)-2-thia-6-azaspiro[3.5]nonane]
7590	–	–	2630	–	2100	2830	4190	NC(=O)C1COCCN(c2nc(OCC34CCCN3CCC4)nc3c(F)c(-c4cccc5cccc(F)c45)ncc23)C1 (stereo not drawn) [Example 270, 4-(8-fluoro-7-(8-fluoronaphthalen-1-yl)-2-((hexahydro-1H-pyrrolizin-7a-yl)methoxy)pyrido[4,3-d]pyrimidin-4-yl)-1,4-oxazepane-6-carboxamide]
7690	–	–	2430	–	2440	–	3000	CS(=O)(=O)C1COCCN(c2nc(OCC34CCCN3CCC4)nc3c(F)c(-c4cccc5cccc(F)c45)ncc23)C1 (stereo not drawn) [Example 271, 4-(8-fluoro-7-(8-fluoronaphthalen-1-yl)-2-((hexahydro-1H-pyrrolizin-7a-yl)methoxy)pyrido[4,3-d]pyrimidin-4-yl)-6-(methylsulfonyl)-1,4-oxazepane]
5200	–	–	5150	–	2310	–	3070	NC(=O)[C@H]1CCCN(c2nc(OCC34CCCN3CCC4)nc3c(F)c(-c4cccc5cccc(F)c45)ncc23)C1 [Example 273, (S)-1-(8-fluoro-7-(8-fluoronaphthalen-1-yl)-2-((hexahydro-1H-pyrrolizin-7a-yl)methoxy)pyrido[4,3-d]pyrimidin-4-yl)piperidine-3-carboxamide]
2760	–	–	375	–	867	–	14700	CN(C)C(=O)n1cc2c(n1)CCCN(c1nc(OCC34CCCN3CCC4)nc3c(F)c(-c4cccc5cccc(F)c45)ncc13)C2 [Example 274, 5-(8-fluoro-7-(8-fluoronaphthalen-1-yl)-2-((hexahydro-1H-pyrrolizin-7a-yl)methoxy)pyrido[4,3-d]pyrimidin-4-yl)-N,N-dimethyl-5,6,7,8-tetrahydropyrazolo[4,3-c]azepine-2(4H)-carboxamide]
7160	–	–	1660	–	9050	–	24300	CC(=O)Nc1cc2n(n1)CCCN(c1nc(OCC34CCCN3CCC4)nc3c(F)c(-c4cccc5cccc(F)c45)ncc13)C2 [Example 275, N-(5-(8-fluoro-7-(8-fluoronaphthalen-1-yl)-2-((hexahydro-1H-pyrrolizin-7a-yl)methoxy)pyrido[4,3-d]pyrimidin-4-yl)-5,6,7,8-tetrahydro-4H-pyrazolo[1,5-a][1,4]diazepin-2-yl)acetamide]
1210	–	–	212	–	303	–	3220	O=C(c1cc2n(n1)CCCN(c1nc(OCC34CCCN3CCC4)nc3c(F)c(-c4cccc5cccc(F)c45)ncc13)C2)N1CCOCC1 [Example 276, (5-(8-fluoro-7-(8-fluoronaphthalen-1-yl)-2-((hexahydro-1H-pyrrolizin-7a-yl)methoxy)pyrido[4,3-d]pyrimidin-4-yl)-5,6,7,8-tetrahydro-4H-pyrazolo[1,5-a][1,4]diazepin-2-yl)(morpholino)methanone]
4910	–	–	765	–	1800	–	5290	O=C(c1cc2n(n1)CCCN(c1nc(OCC34CCCN3CCC4)nc3c(F)c(-c4cccc5cccc(F)c45)ncc13)C2)N1CCC1 [Example 277, azetidin-1-yl(5-(8-fluoro-7-(8-fluoronaphthalen-1-yl)-2-((hexahydro-1H-pyrrolizin-7a-yl)methoxy)pyrido[4,3-d]pyrimidin-4-yl)-5,6,7,8-tetrahydro-4H-pyrazolo[1,5-a][1,4]diazepin-2-yl)methanone]
1860	–	–	801	–	1990	–	3670	Cc1c(N)nn2c1CN(c1nc(OCC34CCCN3CCC4)nc3c(F)c(-c4cccc5cccc(F)c45)ncc13)CCC2 [Example 278, 5-(8-fluoro-7-(8-fluoronaphthalen-1-yl)-2-((hexahydro-1H-pyrrolizin-7a-yl)methoxy)pyrido[4,3-d]pyrimidin-4-yl)-3-methyl-5,6,7,8-tetrahydro-4H-pyrazolo[1,5-a][1,4]diazepin-2-amine]
13	660	–	56	≥ 10000	5	–	–	CCc1c(F)ccc2cc(O)cc(-c3ncc4c(NCCN5CCNC5=O)nc(OC[C@@]56CCCN5C[C@H](F)C6)nc4c3F)c12 [Example 372, 1-(2-((7-(8-ethyl-7-fluoro-3-hydroxynaphthalen-1-yl)-8-fluoro-2-(((2R,7aS)-2-fluorotetrahydro-1H-pyrrolizin-7a(5H)-yl)methoxy)pyrido[4,3-d]pyrimidin-4-yl)amino)ethyl)imidazolidin-2-one]

Compound	IC50 (KRas G12R) [nM]	IC50 (pERK in MKN1 cells) [nM]	IC50 (pERK in ASPC1 cells) [nM]	IC50 (KRas G12D) [nM]	IC50 (pERK in PSN1 cells) [nM]	IC50 (KRas G12V) [nM]	IC50 (KRas G12C) [nM]	IC50 (KRas WT) [nM]
CCc1c(F)ccc2cc(O)cc(-c3ncc4c(N5CCC[C@](C)(O)C5)nc(OC[C@@]56CCCN5C[C@H](F)C6)nc4c3F)c12 [Example 4]	–	–	–	–	≥ 10000	–	–	–
